#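 96-well plates; 48 h exposure; 5 concentrations. Endpoints by linear interpolation between flanking doses. Not reached: highest tested concentration assigned. GI50 marks 50% less growth. TGI: concentration producing complete growth inhibition.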
# Columns and labels:
# Experiment in all cases: NCI anticancer screen, dose series, 48 h
# MCF7 breast = system: MCF7 breast
# A498 renal = system: A498 renal
# HOP-92 NSCLC = system: HOP-92 NSCLC
# UACC-257 melanoma = system: UACC-257 melanoma
# SF-539 CNS = system: SF-539 CNS
# HCT-15 colon = system: HCT-15 colon
# SN12C renal = system: SN12C renal
# NCI-H226 lung = system: NCI-H226 lung
# SNB-19 CNS = system: SNB-19 CNS
# RXF 393 renal = system: RXF 393 renal
# HL-60(TB) leukemia = system: HL-60(TB) leukemia
# NCI-H460 lung = system: NCI-H460 lung
# HCT-116 colon = system: HCT-116 colon
# DU-145 prostate = system: DU-145 prostate
# MDA-MB-468 breast = system: MDA-MB-468 breast
# K-562 leukemia = system: K-562 leukemia
# 786-0 renal = system: 786-0 renal
# HCC-2998 colon = system: HCC-2998 colon
# SW-620 colon = system: SW-620 colon
# CAKI-1 renal = system: CAKI-1 renal
# OVCAR-5 ovarian = system: OVCAR-5 ovarian
# SF-295 CNS = system: SF-295 CNS
# KM12 colon = system: KM12 colon
# BT-549 breast = system: BT-549 breast
# MDA-MB-231 breast = system: MDA-MB-231 breast
# MDA-MB-435 = system: MDA-MB-435
# LOX IMVI melanoma = system: LOX IMVI melanoma
# OVCAR-3 ovarian = system: OVCAR-3 ovarian
# UACC-62 melanoma = system: UACC-62 melanoma
# CCRF-CEM leukemia = system: CCRF-CEM leukemia
# PC-3 prostate = system: PC-3 prostate
# T-47D breast = system: T-47D breast
# SK-OV-3 ovarian = system: SK-OV-3 ovarian
# COLO 205 colon = system: COLO 205 colon
# NCI-H522 lung = system: NCI-H522 lung
# M14 melanoma = system: M14 melanoma
# OVCAR-4 ovarian = system: OVCAR-4 ovarian
# NCI-H23 lung = system: NCI-H23 lung
# MALME-3M melanoma = system: MALME-3M melanoma
# SK-MEL-28 melanoma = system: SK-MEL-28 melanoma
# OVCAR-8 ovarian = system: OVCAR-8 ovarian
# TK-10 renal = system: TK-10 renal
# HT29 colon = system: HT29 colon
# UO-31 renal = system: UO-31 renal
# ACHN renal = system: ACHN renal
# SNB-75 CNS = system: SNB-75 CNS
# EKVX NSCLC = system: EKVX NSCLC
# SK-MEL-5 melanoma = system: SK-MEL-5 melanoma
# RPMI-8226 leukemia = system: RPMI-8226 leukemia
# MOLT-4 leukemia = system: MOLT-4 leukemia
# U251 CNS = system: U251 CNS
# A549 NSCLC = system: A549 NSCLC
# HS 578T breast = system: HS 578T breast
# IGROV1 ovarian = system: IGROV1 ovarian
# SF-268 CNS = system: SF-268 CNS
# HOP-62 NSCLC = system: HOP-62 NSCLC
# SR leukemia = system: SR leukemia
smiles,measurement,setting,value
Cc1ccc(NC(=O)[C@]23CCC(C)(C)CC2C2=CCC4[C@@]5(C)C[C@@H](O)[C@H](O)[C@@](C)(CO)C5CC[C@@]4(C)[C@]2(C)CC3)cc1 (some centres undefined),GI50,MCF7 breast,4.12 µM
same,TGI,MCF7 breast,15.5 µM
same,GI50,A498 renal,14.1 µM
same,TGI,A498 renal,27.4 µM
same,GI50,HOP-92 NSCLC,8.43 µM
same,TGI,HOP-92 NSCLC,23.1 µM
same,GI50,UACC-257 melanoma,12.9 µM
same,TGI,UACC-257 melanoma,27.5 µM
same,GI50,SF-539 CNS,12.7 µM
same,TGI,SF-539 CNS,25.6 µM
same,GI50,HCT-15 colon,6.9 µM
same,TGI,HCT-15 colon,19.9 µM
same,GI50,SN12C renal,10.9 µM
same,TGI,SN12C renal,23.1 µM
same,GI50,NCI-H226 lung,11 µM
same,TGI,NCI-H226 lung,23.8 µM
same,GI50,SNB-19 CNS,16.5 µM
same,TGI,SNB-19 CNS,43.4 µM
same,GI50,RXF 393 renal,2.9 µM
same,TGI,RXF 393 renal,11.6 µM
same,GI50,HL-60(TB) leukemia,5.44 µM
same,TGI,HL-60(TB) leukemia,36.5 µM
same,GI50,NCI-H460 lung,10.5 µM
same,TGI,NCI-H460 lung,23.1 µM
same,GI50,HCT-116 colon,7.24 µM
same,TGI,HCT-116 colon,20 µM
same,GI50,DU-145 prostate,15.2 µM
same,TGI,DU-145 prostate,32.6 µM
same,GI50,MDA-MB-468 breast,4.52 µM
same,TGI,MDA-MB-468 breast,18.1 µM
same,GI50,K-562 leukemia,12.1 µM
same,TGI,K-562 leukemia,87.6 µM
same,GI50,786-0 renal,12.8 µM
same,TGI,786-0 renal,26.4 µM
same,GI50,HCC-2998 colon,6.91 µM
same,TGI,HCC-2998 colon,21 µM
same,GI50,SW-620 colon,12.5 µM
same,TGI,SW-620 colon,27.5 µM
same,GI50,CAKI-1 renal,5.1 µM
same,TGI,CAKI-1 renal,20.4 µM
same,GI50,OVCAR-5 ovarian,12.8 µM
same,TGI,OVCAR-5 ovarian,25.7 µM
same,GI50,SF-295 CNS,8.28 µM
same,TGI,SF-295 CNS,21.4 µM
same,GI50,KM12 colon,12.8 µM
same,TGI,KM12 colon,28.2 µM
same,GI50,BT-549 breast,12.4 µM
same,TGI,BT-549 breast,25.4 µM
same,GI50,MDA-MB-231 breast,12.2 µM
same,TGI,MDA-MB-231 breast,26.1 µM
same,GI50,MDA-MB-435,11.5 µM
same,TGI,MDA-MB-435,23.7 µM
same,GI50,LOX IMVI melanoma,5.27 µM
same,TGI,LOX IMVI melanoma,19.1 µM
same,GI50,OVCAR-3 ovarian,13.5 µM
same,TGI,OVCAR-3 ovarian,27.3 µM
same,GI50,UACC-62 melanoma,6.8 µM
same,TGI,UACC-62 melanoma,20.6 µM
same,GI50,CCRF-CEM leukemia,11.1 µM
same,TGI,CCRF-CEM leukemia,38.9 µM
same,GI50,PC-3 prostate,5.46 µM
same,TGI,PC-3 prostate,21.5 µM
same,GI50,T-47D breast,6.94 µM
same,TGI,T-47D breast,20.6 µM
same,GI50,SK-OV-3 ovarian,13.9 µM
same,TGI,SK-OV-3 ovarian,34 µM
same,GI50,COLO 205 colon,12.1 µM
same,TGI,COLO 205 colon,27.5 µM
same,GI50,NCI-H522 lung,12.9 µM
same,TGI,NCI-H522 lung,26.6 µM
same,GI50,M14 melanoma,12.4 µM
same,TGI,M14 melanoma,25.2 µM
same,GI50,OVCAR-4 ovarian,7.81 µM
same,TGI,OVCAR-4 ovarian,23.3 µM
same,GI50,NCI-H23 lung,12.7 µM
same,TGI,NCI-H23 lung,26.8 µM
same,GI50,MALME-3M melanoma,12.1 µM
same,TGI,MALME-3M melanoma,25.1 µM
same,GI50,SK-MEL-28 melanoma,13 µM
same,TGI,SK-MEL-28 melanoma,26 µM
same,GI50,OVCAR-8 ovarian,14.2 µM
same,TGI,OVCAR-8 ovarian,35.5 µM
same,GI50,TK-10 renal,16.3 µM
same,TGI,TK-10 renal,32 µM
same,GI50,HT29 colon,7.44 µM
same,TGI,HT29 colon,20.1 µM
same,GI50,UO-31 renal,3.54 µM
same,TGI,UO-31 renal,17 µM
same,GI50,ACHN renal,10.4 µM
same,TGI,ACHN renal,22.1 µM
same,GI50,SNB-75 CNS,1.88 µM
same,TGI,SNB-75 CNS,31.4 µM
same,GI50,EKVX NSCLC,9.25 µM
same,TGI,EKVX NSCLC,23.9 µM
same,GI50,SK-MEL-5 melanoma,6.45 µM
same,TGI,SK-MEL-5 melanoma,19.3 µM
same,GI50,RPMI-8226 leukemia,4.79 µM
same,TGI,RPMI-8226 leukemia,25.8 µM
same,GI50,MOLT-4 leukemia,6.88 µM
same,TGI,MOLT-4 leukemia,50.7 µM
same,GI50,U251 CNS,12.8 µM
same,TGI,U251 CNS,25.5 µM
same,GI50,A549 NSCLC,12.9 µM
same,TGI,A549 NSCLC,> 100 µM
same,GI50,HS 578T breast,12.4 µM
same,TGI,HS 578T breast,48.6 µM
same,GI50,IGROV1 ovarian,11.1 µM
same,TGI,IGROV1 ovarian,23.8 µM
same,GI50,SF-268 CNS,10.2 µM
same,TGI,SF-268 CNS,32.2 µM
same,GI50,HOP-62 NSCLC,14.3 µM
same,TGI,HOP-62 NSCLC,29.1 µM
same,GI50,SR leukemia,5.58 µM
same,TGI,SR leukemia,> 100 µM

# — PubChem BioAssay (NCI)
